ChEMBL document CHEMBL1269002, “A protecting group-free synthesis of deazathiamine: a step toward inhibitor design” (Bioorg Med Chem Lett, 2010)

Legend:
[1] = Inhibition of Mycobacterium tuberculosis 2-hydroxy-3-oxoadipate synthase-catalyzed reduction of ferricyanide
[2] = Competitive inhibition of Mycobacterium tuberculosis 2-hydroxy-3-oxoadipate synthase-catalyzed reduction of ferricyanide

For `Cc1ncc(Cc2csc(CCOP(=O)(O)OP(=O)(O)O)c2C)c(N)n1`, the IC50 [1] was 6.7 µM and the Ki [2] was 3.5 µM.

Compound `Cc1ncc(Cc2csc(CCO)c2C)c(N)n1` [3-DEAZATHIAMINE] has an IC50 [1] of 144 µM and a Ki [2] of 76 µM.
